Reference: patent US5516803A, “Composition comprising a tramadol material and a non-steroidal anti-inflammatory drug” (priority 1995, dated 1996)

Key:
[1] = cited from earlier work; for intensity of pain relieved / tolerance, addiction and toxicity: compared with opioid analgesics; for opioid side effects: Goodman and Gilman's, 8th edition
[2] = test system: acetylcholine-induced abdominal constriction; test: prevention of acetylcholine-induced abdominal constriction in mice (analgesic activity, oral); format: in vivo, male CD1 mice
Protocol: […]. The mice were all dosed orally with tramadol hydrochloride (calculated as the base), which was completely dissolved in distilled water, and ibuprofen (calculated as the base), which was completely dissolved in distilled water or in distilled water containing 2% by volume of Tween 80 containing 100% polysorbate 80. The dosing volume was 10 mL/kg.
The procedure used in detecting and comparing the analgesic activity of different classes of analgesic drugs for which there is a good correlation with human efficacy is the prevention of acetylcholine-induced abdominal constriction in mice (H. Collier et al., Br. J. Pharmacol., 32, 295 (1968)).
Mice, incubated with various doses of tramadol hydrochloride alone, ibuprofen alone, combined doses of tramadol hydrochloride and ibuprofen, or vehicle such as distilled water, or distilled water containing 2% by volume of Tween 80, were injected intraperitoneally with a challenge dose of acetylcholine bromide. […]. The mice were observed 10 minutes for the presence or absence of the abdominal constriction response beginning immediately after receiving the acetylcholine dose, which was 30 minutes after receiving the oral administration of tramadol hydrochloride,ibuprofen, combined doses of tramadol hydrochloride and ibuprofen, or vehicle. Each mouse was used only once.
The analysis of possible superadditivity for the compositions at each fixed ratio was determined as disclosed by R. J. Tallarida et al., Life Sci., 45, 947 (1989). This procedure involved the determination of the total amount in the mixture that is required to produce a specified level of effect, such as 50% (ED50mix), and the corresponding total amount that would be expected under simple additivity (ED50add). Where it was established that ED50mix <ED50add for a specific fixed-ratio, then that composition ratio was superadditive. Both the quantities ED50mix and ED50add were random variables; ED50mix was estimated from the dose-response curve for a specific fixed-ratio; ED50add was obtained by combining the ED50 estimates for the two drugs under additivity. ED50mix was then compared to ED50add via a Student's t-test. […]. The interaction between tramadol and ibuprofen was determined at precise dosage ratios of tramadol hydrochloride and ibuprofen. Multiple (typically 4-6) coded doses of each selected combination were studied for analgesic effectiveness after 30 minutes using an experimental design which permitted the complete randomization of the separate dosage forms tested.
In FIG. 1, the diagonal line joining the ED50 values of the two drugs given separately represents the simple additivity of effects at different component ratios. The dotted lines adjacent to the diagonal line define the 95% confidence interval. ED50 values falling under the curve (between the line and the origin) indicate superadditivity, i.e., unexpected enhancement of effects. The diagonal dashed lines radiating from the origin represent the dose ratios of ibuprofen to tramadol hydrochloride used in mice receiving the combined drug dosages. The bars through the ED50 points for the tramadol and ibuprofen composition represent the 95% confidence intervals of the ED50 value. […]

SMILES: CC(=O)Oc1ccccc1C(=O)O [aspirin]
- intensity of pain relieved [1]: only useful in relieving pain of moderate intensity
- tolerance, addiction and toxicity [1]: not subject to the tolerance, addiction and toxicity of the opioid analgesics

SMILES: COc1cccc(C2(O)CCCCC2CN(C)C)c1 (single isomer, unassigned) [tramadol, (1R, 2R or 1S, 2S)-2-[(dimethylamino)methyl]-1-(3-methoxyphenyl)cyclohexanol]
- ED50 value for drug alone ([2]; drug alone, oral, 30 min, range in parentheses 95% CI): 5.5(4.8-6.4) mg/kg
- ED50 at 30 min (95% CI's), Tramadol ([2]; p.o., tramadol component (calculated as base), Table I): 5.5 mg/kg

SMILES: COc1ccc2c3c1O[C@H]1[C@@H](O)C=C[C@H]4[C@@H](C2)N(C)CC[C@@]341 [codeine]
- opioid side effects [1]: respiratory depression, constipation, tolerance and abuse liability

SMILES: COc1ccc2c3c1O[C@H]1C(=O)CC[C@H]4[C@@H](C2)N(C)CC[C@]314 [hydrocodone]
- opioid side effects [1]: respiratory depression, constipation, tolerance and abuse liability

SMILES: CC(C)Cc1ccc(C(C)C(=O)O)cc1 (stereo not drawn) [ibuprofen, 2-(p-isobutylphenyl)propionic acid]
- intensity of pain relieved [1]: only useful in relieving pain of moderate intensity
- tolerance, addiction and toxicity [1]: not subject to the tolerance, addiction and toxicity of the opioid analgesics
- ED50 ([2]; Mus musculus, 0.5 h, drug alone, oral, 30 min, range in parentheses 95% CI): 33.5 mg/kg
- analgesia ([2]; tramadol 0, ibuprofen 10 mg/kg, p.o., 30 min): 2/15
- analgesia ([2]; tramadol 0, ibuprofen 20 mg/kg, p.o., 30 min): 4/15
- analgesia ([2]; tramadol 0, ibuprofen 40 mg/kg, p.o., 30 min): 8/15
- analgesia ([2]; tramadol 0, ibuprofen 80 mg/kg, p.o., 30 min): 13/15
- analgesia ([2]; tramadol 0, ibuprofen 160 mg/kg, p.o., 30 min): 14/15

SMILES: COc1ccc2c3c1O[C@H]1C(=O)CC[C@@]4(O)[C@@H](C2)N(C)CC[C@]314 [oxycodone]
- opioid side effects [1]: respiratory depression, constipation, tolerance and abuse liability
